This note sets out measurements from patent US12780800B1, “Triazole-pyridinyl substituted azacyclohexyl acetic acid compounds as LPA receptor antagonists” (Viva Star Biosciences Limited, priority 2021, dated 2022).

pIC50: −log10 of the molar value.

T1 sequence (Q92633 whole entry, the tested form may be a part): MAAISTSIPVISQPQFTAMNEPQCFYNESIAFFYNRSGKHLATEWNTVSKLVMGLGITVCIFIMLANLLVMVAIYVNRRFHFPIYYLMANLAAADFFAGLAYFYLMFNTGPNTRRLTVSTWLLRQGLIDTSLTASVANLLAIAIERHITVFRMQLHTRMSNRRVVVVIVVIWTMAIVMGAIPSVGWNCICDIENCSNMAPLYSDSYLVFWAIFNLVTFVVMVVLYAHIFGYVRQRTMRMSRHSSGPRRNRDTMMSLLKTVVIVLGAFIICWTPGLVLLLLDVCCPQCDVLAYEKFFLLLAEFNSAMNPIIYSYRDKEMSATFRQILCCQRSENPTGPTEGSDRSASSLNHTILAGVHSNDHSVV

The assay has as its target T1, LPA1 (Homo sapiens, UniProt Q92633).
T1 construct: ProLink (PK) beta-galactosidase enzyme-fragment tag; host or cells: CHO-K1
Briefly: LPA1 calcium flux assay (LPA1 functional antagonist assay). It is filed as cell-based. The conditions noted are these: PathHunter CHO-K1 EDG2 β-Arrestin cell line; calcium indicator dye; stimulated with EC80 concentration of LPA; FLIPR Tetra. How it is done:
Following overnight culture, cells were loaded with calcium indicator dye from the HitHunter Calcium No WashPLUS Assay kit (Eurofins DiscoverX Corporation, Cat #93-0091) for 45 minutes at 37° C. […] After compound addition, assay plates were equilibrated to room temperature for 30 minutes. […] IC50 values were determined by Chemical and Biological Information System from ChemInnovation Software, Inc. The compounds of this invention were tested for their activity to inhibit LPA1 as determined in an LPA1 functional antagonist assay as described herein.
(In general: A change in cytosolic calcium serves as a functional read-out for many receptors and channels.)
Usually pIC50 stands for −log10 of the IC50, conventionally taken in molar units. With `CCc1nc(-c2nnn(C)c2Cn2ccc(CC3CC3)c(C)c2=O)ccc1N1C[C@@H](CC(=O)O)CC(F)(F)C1` [Example 10, (S)-2-(1-(6-(5-((4-(cyclopropylmethyl)-3-methyl-2-oxopyridin-1(2H)-yl)methyl)-1-methyl-1H-1,2,3-triazol-4-yl)-2-ethylpyridin-3-yl)-5,5-difluoropiperidin-3-yl)acetic acid], the pIC50 was 6.30 to 7.00.
Then `CCc1nc(-c2nnn(C)c2Cn2ccc(CC3CC3)c(C)c2=O)ccc1N1C[C@H](CC(=O)O)CC(F)(F)C1` [Example 11, (R)-2-(1-(6-(5-((4-(cyclopropylmethyl)-3-methyl-2-oxopyridin-1(2H)-yl)methyl)-1-methyl-1H-1,2,3-triazol-4-yl)-2-ethylpyridin-3-yl)-5,5-difluoropiperidin-3-yl)acetic acid], with less than 5.30; and `CCc1nc(-c2nnn(C)c2Cn2cc(CC(C)C)ccc2=O)ccc1N1C[C@@H](CC(=O)O)CC(F)(F)C1` [Example 12, (S)-2-(1-(2-ethyl-6-(5-((5-isobutyl-2-oxopyridin-1(2H)-yl)methyl)-l-methyl-1H-1,2,3-triazol-4-yl)pyridin-3-yl)-5,5-difluoropiperidin-3-y)acetic acid], with more than 7.00; and `CCc1nc(-c2nnn(C)c2Cn2cc(CC3CC3)ccc2=O)ccc1N1C[C@@H](CC(=O)O)CC(F)(F)C1` [Example 13, (S)-2-(1-(6-(5-((5-(cyclopropylmethyl)-2-oxopyridin-1(2H)-yl)methyl)-1-methyl-1H-1,2,3-triazol-4-yl)-2-ethylpyridin-3-yl)-5,5-difluoropiperidin-3-yl)acetic acid], with more than 7.00.
Regarding `CCc1nc(-c2nnn(C)c2Cn2cc(CC3CCC3)ccc2=O)ccc1N1C[C@@H](CC(=O)O)CC(F)(F)C1` [Example 14, (S)-2-(1-(6-(5-((5-(cyclobutylmethyl)-2-oxopyridin-1(2H)-y)methyl)-1-methyl-1H-1,2,3-triazol-4-yl)-2-ethylpyridin-3-yl)-5,5-difluoropiperidin-3-yl)acetic acid], the negative-log IC50 (pIC50) is more than 7.00.
To `CCc1nc(-c2nnn(C)c2Cn2cc(C3CC3)ccc2=O)ccc1N1C[C@@H](CC(=O)O)CC(F)(F)C1` [Example 15, (S)-2-(1-(6-(5-((5-cyclopropyl-2-oxopyridin-1(2H)-yl)methyl)-1-methyl-1H-1,2,3-triazol-4-yl)-2-ethylpyridin-3-yl)-5,5-difluoropiperidin-3-yl)acetic acid] belongs more than 7.00; to `CCc1nc(-c2nnn(C)c2Cn2cc(C(C)C)ccc2=O)ccc1N1C[C@@H](CC(=O)O)CC(F)(F)C1` [Example 16, (S)-2-(1-(2-ethyl-6-(5-((5-isopropyl-2-oxopyridin-1(2H)-yl)methyl)-1-methyl-1H-1,2,3-triazol-4-yl)pyridin-3-yl)-5,5-difluoropiperidin-3-yl)acetic acid], more than 7.00.
Consider `CCc1nc(-c2nnn(C)c2Cn2cc(C3CCC3)ccc2=O)ccc1N1C[C@@H](CC(=O)O)CC(F)(F)C1` [Example 17, (S)-2-(1-(6-(5-((5-cyclobutyl-2-oxopyridin-1(2H)-yl)methyl)-1-methyl-1H-1,2,3-triazol-4-yl)-2-ethylpyridin-3-yl)-5,5-difluoropiperidin-3-yl)acetic acid], for which the pIC50 was more than 7.00.
To `CCc1nc(-c2nnn(C)c2Cn2cc(C3CC3)c(C)cc2=O)ccc1N1C[C@@H](CC(=O)O)CC(F)(F)C1` [Example 18] belongs 5.30 to 6.30; to `CCc1nc(-c2nnn(C)c2Cn2cc(C)c(C3CC3)cc2=O)ccc1N1C[C@@H](CC(=O)O)CC(F)(F)C1` [Example 19, (S)-2-(1-(6-(5-((4-cyclopropyl-5-methyl-2-oxopyridin-1(2H)-yl)methyl)-1-methyl-1H-1,2,3-triazol-4-yl)-2-ethylpyridin-3-yl)-5,5-difluoropiperidin-3-yl)acetic acid], less than 5.30; to `CCc1nc(-c2nnn(C)c2Cn2ccc(C#CC3CC3)cc2=O)ccc1N1C[C@@H](CC(=O)O)CC(F)(F)C1` [Example 20, (S)-2-(1-(6-(5-((4-(cyclopropylethynyl)-2-oxopyridin-1(2H)-yl)methyl)-1-methyl-1H-1,2,3-triazol-4-yl)-2-ethylpyridin-3-yl)-5,5-difluoropiperidin-3-yl)acetic acid], less than 5.30.
Then `CCc1nc(-c2nnn(C)c2Cn2cc(C#CC3CC3)ccc2=O)ccc1N1C[C@@H](CC(=O)O)CC(F)(F)C1` [Example 21, (S)-2-(1-(6-(5-((5-(cyclopropylethynyl)-2-oxopyridin-1(2H)-yl)methyl)-1-methyl-1H-1,2,3-triazol-4-yl)-2-ethylpyridin-3-yl)-5,5-difluoropiperidin-3-yl)acetic acid], with 5.30 to 6.30; and `CCCc1ccc(=O)n(Cc2c(-c3ccc(N4CCC[C@H](CC(=O)O)C4)c(CC)n3)nnn2C)c1` [Example 22, (R)-2-(1-(2-ethyl-6-(1-methyl-5-((2-oxo-5-propylpyridin-1(2H)-yl)methyl)-1H-1,2,3-triazol-4-yl)pyridin-3-yl)piperidin-3-yl)acetic acid], with 6.30 to 7.00.
Then `CCCc1ccc(=O)n(Cc2c(-c3ccc(N4CCC[C@@H](CC(=O)O)C4)c(CC)n3)nnn2C)c1` [Example 23, (S)-2-(1-(2-ethyl-6-(1-methyl-5-((2-oxo-5-propylpyridin-1(2H)-yl)methyl)-1H-1,2,3-triazol-4-yl)pyridin-3-yl)piperidin-3-yl)acetic acid], with less than 5.30; and `CCc1nc(-c2nnn(C)c2Cn2cc(OC3CC3)ccc2=O)ccc1N1C[C@@H](CC(=O)O)CC(F)(F)C1` [Example 24, (S)-2-(1-(6-(5-((5-cyclopropoxy-2-oxopyridin-1(2H)-yl)methyl)-1-methyl-1H-1,2,3-triazol-4-yl)-2-ethylpyridin-3-yl)-5,5-difluoropiperidin-3-yl)acetic acid], with more than 7.00; and `CCCOc1ccc(=O)n(Cc2c(-c3ccc(N4C[C@@H](CC(=O)O)CC(F)(F)C4)c(CC)n3)nnn2C)c1` [Example 25, (S)-2-(1-(2-ethyl-6-(1-methyl-5-((2-oxo-5-propoxypyridin-1 (2H)-yl)methyl)-1H-1,2,3-triazol-4-yl)pyridin-3-yl)-5,5-difluoropiperidin-3-yl)acetic acid], with 6.30 to 7.00.
Turning to `CCOc1ccc(=O)n(Cc2c(-c3ccc(N4C[C@@H](CC(=O)O)CC(F)(F)C4)c(CC)n3)nnn2C)c1` [Example 26, (S)-2-(1-(6-(5-((5-ethoxy-2-oxopyridin-1(2H)-yl)methyl)-1-methyl-1H-1,2,3-triazol-4-yl)-2-ethylpyridin-3-yl)-5,5-difluoropiperidin-3-yl)acetic acid], the pIC50 is 6.30 to 7.00.
Then `CCc1nc(-c2nnn(C)c2Cn2cc(N3CCC3)ccc2=O)ccc1N1C[C@@H](CC(=O)O)CC(F)(F)C1` [Example 27, (S)-2-(1-(6-(5-((5-(azetidin-1-yl)-2-oxopyridin-1(2H)-yl)methyl)-1-methyl-1H-1,2,3-triazol-4-yl)-2-ethylpyridin-3-yl)-5,5-difluoropiperidin-3-yl)acetic acid], with 5.30 to 6.30; and `CCc1nc(-c2nnn(C)c2Cn2cc(-n3cccn3)ccc2=O)ccc1N1C[C@@H](CC(=O)O)CC(F)(F)C1` [Example 28, (S)-2-(1-(2-ethyl-6-(1-methyl-5-((2-oxo-5-(1H-pyrazol-1-yl)pyridin-1 (2H)-y)methyl)-1H-1,2,3-triazol-4-yl)pyridin-3-yl)-5,5-difluoropiperidin-3-yl)acetic acid], with 5.30 to 6.30; and `CCCc1cn(Cc2c(-c3ccc(N4C[C@@H](CC(=O)O)CC(F)(F)C4)c(CC)n3)nnn2C)c(=O)cn1` [Example 29, (S)-2-(1-(2-ethyl-6-(1-methyl-5-((2-oxo-5-propylpyrazin-1(2H)-yl)methyl)-1H-1,2,3-triazol-4-yl)pyridin-3-yl)-5,5-difluoropiperidin-3-yl)acetic acid], with 6.30 to 7.00.
To `CCCc1cc(=O)n(Cc2c(-c3ccc(N4C[C@@H](CC(=O)O)CC(F)(F)C4)c(CC)n3)nnn2C)cn1` [Example 31] belongs less than 5.30.
Then `CCCc1ccnn(Cc2c(-c3ccc(N4C[C@@H](CC(=O)O)CC(F)(F)C4)c(C)n3)nnn2C)c1=O` [Example 32, (S)-2-(5,5-difluoro-1-(2-methyl-6-(1-methyl-5-((6-0xo-5-propylpyridazin-1(6H)-yl)methyl)-1H-1,2,3-triazol-4-yl)pyridin-3-yl)piperidin-3-yl)acetic acid], with 5.30 to 6.30; and `CCCc1cnn(Cc2c(-c3ccc(N4C[C@@H](CC(=O)O)CC(F)(F)C4)c(C)n3)nnn2C)c(=O)c1` [Example 33, (S)-2-(5,5-difluoro-1-(2-methyl-6-(1-methyl-5-((6-oxo-4-propylpyridazin-1(6H)-yl)methyl)-1H-1,2,3-triazol-4-yl)pyridin-3-yl)piperidin-3-yl)acetic acid], with less than 5.30.
Regarding `CCCc1ccc(=O)n(Cc2c(-c3ccc(N4C[C@@H](CC(=O)O)CC(F)(F)C4)c(C)n3)nnn2C)n1` [Example 34, (S)-2-(5,5-difluoro-1-(2-methyl-6-(1-methyl-5-((6-oxo-3-propylpyridazin-1(6H)-yl)methyl)-1H-1,2,3-triazol-4-yl)pyridin-3-yl)piperidin-3-yl)acetic acid], the pIC50 was 5.30 to 6.30.
Then `CCc1nc(-c2nnn(C)c2Cn2nc(CC3CC3)ccc2=O)ccc1N1C[C@@H](CC(=O)O)CC(F)(F)C1` [Example 35, (S)-2-(1-(6-(5-((3-(cyclopropyImethyl)-6-oxopyridazin-1(6H)-yl)methyl)-1-methyl-1H-1,2,3-triazol-4-yl)-2-ethylpyridin-3-yl)-5,5-difluoropiperidin-3-yl)acetic acid], with 6.30 to 7.00.
